Results published in publication PMC8159961, “Exploring protein hotspots by optimized fragment pharmacophores” (Nature Communications, 2021).
“And” between values parts separate entries of the source, which are not always exact repeats. Identical values can stand only once. Like-named read-outs stand apart in the source and are kept apart here.

Assays:
human 5-HT7b receptor = target: T1, human 5-HT7b receptor (Homo sapiens, UniProt P34969); assay: GPCR radioligand binding assay, [3H]-5-CT displacement, HEK293 membranes
T1 construct: expressed in transfected cells
T1 sequence (P34969 1-432): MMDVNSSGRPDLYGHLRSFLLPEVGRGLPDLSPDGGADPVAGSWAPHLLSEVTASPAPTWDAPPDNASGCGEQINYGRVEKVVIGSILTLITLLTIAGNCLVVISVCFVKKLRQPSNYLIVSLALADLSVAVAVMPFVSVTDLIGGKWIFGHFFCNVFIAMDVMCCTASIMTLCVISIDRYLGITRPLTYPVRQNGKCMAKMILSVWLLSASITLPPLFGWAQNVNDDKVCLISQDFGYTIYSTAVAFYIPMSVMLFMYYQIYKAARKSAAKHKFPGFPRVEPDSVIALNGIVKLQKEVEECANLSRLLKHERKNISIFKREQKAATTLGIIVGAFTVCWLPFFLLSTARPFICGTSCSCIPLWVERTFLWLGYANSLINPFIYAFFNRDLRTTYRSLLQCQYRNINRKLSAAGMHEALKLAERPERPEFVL

human thrombin = target: T2, human thrombin (Homo sapiens, UniProt P00734); assay: Protease inhibitory assay, chromogenic substrate S-2238; assay type: biochemical; conditions: for V0 / Vi / vinit: Thrombin primary screening, substrate 40 µM, cmpd conc 500 µM; for vinit: replicate values
T2 construct: human thrombin; purchased Sigma-Aldrich

human 5-HT6 receptor = target: T3, human 5-HT6 receptor (Homo sapiens, UniProt P50406); assay: GPCR radioligand binding assay, [3H]-LSD displacement, HEK293 membranes
T3 construct: expressed in transfected cells
T3 sequence (P50406 whole entry): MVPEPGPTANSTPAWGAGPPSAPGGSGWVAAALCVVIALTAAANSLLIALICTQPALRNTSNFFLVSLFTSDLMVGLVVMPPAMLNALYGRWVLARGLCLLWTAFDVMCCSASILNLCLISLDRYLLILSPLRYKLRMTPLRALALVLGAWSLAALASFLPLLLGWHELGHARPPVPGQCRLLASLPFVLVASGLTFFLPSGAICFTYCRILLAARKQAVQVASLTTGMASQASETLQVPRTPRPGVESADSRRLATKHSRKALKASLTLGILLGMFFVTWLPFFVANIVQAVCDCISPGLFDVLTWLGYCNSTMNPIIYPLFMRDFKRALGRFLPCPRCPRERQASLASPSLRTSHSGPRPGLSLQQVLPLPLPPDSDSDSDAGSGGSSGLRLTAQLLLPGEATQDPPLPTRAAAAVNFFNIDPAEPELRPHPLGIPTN

human 5-HT1A receptor = target: T4, human 5-HT1A receptor (Homo sapiens, UniProt P08908); assay: GPCR radioligand binding assay, [3H]-8-OH-DPAT displacement, HEK293 membranes
T4 construct: expressed in transfected cells
T4 sequence (P08908 1-422): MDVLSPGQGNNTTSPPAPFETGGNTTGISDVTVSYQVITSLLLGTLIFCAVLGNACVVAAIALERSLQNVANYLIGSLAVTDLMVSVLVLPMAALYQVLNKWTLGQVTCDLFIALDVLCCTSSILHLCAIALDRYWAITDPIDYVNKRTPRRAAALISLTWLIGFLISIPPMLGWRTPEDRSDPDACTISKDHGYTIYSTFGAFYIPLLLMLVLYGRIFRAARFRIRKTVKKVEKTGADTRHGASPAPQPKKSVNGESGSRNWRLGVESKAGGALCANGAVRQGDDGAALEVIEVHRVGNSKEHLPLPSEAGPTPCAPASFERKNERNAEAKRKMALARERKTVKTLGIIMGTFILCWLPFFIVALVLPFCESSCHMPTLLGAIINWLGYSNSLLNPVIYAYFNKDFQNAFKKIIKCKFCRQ

bovine factor Xa = target: T5, bovine factor Xa (Bos taurus, UniProt P00743); assay: Protease inhibitory assay, chromogenic substrate S-2222; assay type: biochemical; conditions: for vinit: replicate values
T5 construct: bovine factor Xa, Chromogenix, 2 nkat/mL; purchased Chromogenix
T5 sequence (P00743 234-492 limits assumed): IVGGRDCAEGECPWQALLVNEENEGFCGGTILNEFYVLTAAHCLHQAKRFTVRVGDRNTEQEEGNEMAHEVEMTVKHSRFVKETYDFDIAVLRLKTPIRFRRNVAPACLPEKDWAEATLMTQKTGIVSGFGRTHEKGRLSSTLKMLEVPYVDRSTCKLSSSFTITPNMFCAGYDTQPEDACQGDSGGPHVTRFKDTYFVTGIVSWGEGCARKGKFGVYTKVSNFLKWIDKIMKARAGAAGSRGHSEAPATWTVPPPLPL
T5 sequence (P00743 41-180 partner limits assumed): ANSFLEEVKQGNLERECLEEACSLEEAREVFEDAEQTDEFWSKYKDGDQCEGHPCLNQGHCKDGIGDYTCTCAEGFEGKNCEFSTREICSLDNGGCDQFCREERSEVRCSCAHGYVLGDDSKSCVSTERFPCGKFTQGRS

recombinant SETD2 = target: T6, recombinant SETD2 (Homo sapiens, UniProt Q9BYW2); assay: SETD2 Chemiluminescence assay (H3K36 tri-methylation); assay type: biochemical; conditions: for SETD2 signal normalised to positive control and internally to compound: nM], replicates
T6 construct: purchased BPS Bioscience 52060
T6 sequence (Q9BYW2 1418-1714 limits assumed): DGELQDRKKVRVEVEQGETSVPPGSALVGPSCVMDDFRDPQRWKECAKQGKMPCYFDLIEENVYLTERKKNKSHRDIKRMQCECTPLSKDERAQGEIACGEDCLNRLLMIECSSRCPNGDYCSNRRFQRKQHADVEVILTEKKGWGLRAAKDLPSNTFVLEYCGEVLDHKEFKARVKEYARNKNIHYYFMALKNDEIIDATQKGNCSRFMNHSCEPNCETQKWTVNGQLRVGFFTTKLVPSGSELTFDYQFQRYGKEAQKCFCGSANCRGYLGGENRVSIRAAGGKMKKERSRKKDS

[1] = 10 µM, read-out: 5-HT7 % Inhibition by plate position
[2] = 5-HT7, average of exp_1 and exp_2, read-out: %inh 5-HT7 average
[3] = 5-HT7, average, values below 0 and above 100% were set as 0 and 100, read-out: %inh 5-HT7 corrected*
[4] = 5-HT7, replicate exp_1, read-out: %inh 5-HT7 exp_1
[5] = 5-HT7, replicate exp_2, read-out: %inh 5-HT7 exp_2
[6] = 10 µM, read-out: 5-HT6 % Inhibition by plate position
[7] = 5-HT6, average of exp_1 and exp_2, read-out: %inh 5-HT6 average
[8] = 5-HT6, average, values below 0 and above 100% were set as 0 and 100, read-out: %inh 5-HT6 corrected*
[9] = 5-HT6, replicate exp_1, read-out: %inh 5-HT6 exp_1
[10] = 5-HT6, replicate exp_2, read-out: %inh 5-HT6 exp_2
[11] = 10 µM, read-out: 5-HT1A % Inhibition by plate position
[12] = 5-HT1A, average of exp_1 and exp_2, read-out: %inh 5-HT1A average
[13] = 5-HT1A, average, values below 0 and above 100% were set as 0 and 100, read-out: %inh 5-HT1A corrected*
[14] = 5-HT1A, replicate exp_1, read-out: %inh 5-HT1A exp_1
[15] = 5-HT1A, replicate exp_2, read-out: %inh 5-HT1A exp_2
[16] = FactorXa primary screening, substrate 100 µM, cmpd conc 200 µM
[17] = FactorXa Ki determination, substrate 100 µM, cmpd conc 200 µM
[18] = FactorXa Ki determination, substrate 200 µM, cmpd conc 200 µM

CC(=O)c1sc(-c2ccc(O)cc2)nc1C [E1]
inhibition at 10 µM (human 5-HT7b receptor; [1]): 43% | inhibition at 10 µM (human 5-HT7b receptor; [2]): 43% | inhibition at 10 µM (human 5-HT7b receptor; [3]): 43% | inhibition at 10 µM (human 5-HT7b receptor; [4]): 36% | inhibition at 10 µM (human 5-HT7b receptor; [5]): 50% | Ki (human thrombin; plate layout, label = plate position, Cheng-Prusoff, Km 2.6 µM, read-out: Thrombin Ki): 229 µM | inhibition at 10 µM (human 5-HT6 receptor; [6]): 65% | inhibition at 10 µM (human 5-HT6 receptor; [7]): 65% | inhibition at 10 µM (human 5-HT6 receptor; [8]): 65% | inhibition at 10 µM (human 5-HT6 receptor; [9]): 71% | inhibition at 10 µM (human 5-HT6 receptor; [10]): 58% | inhibition at 10 µM (human 5-HT1A receptor; [11]): 0% | inhibition at 10 µM (human 5-HT1A receptor; [12]): -8.44% | inhibition at 10 µM (human 5-HT1A receptor; [13]): 0% | inhibition at 10 µM (human 5-HT1A receptor; [14]): 1.63% | inhibition at 10 µM (human 5-HT1A receptor; [15]): -19% | Ki (bovine factor Xa): 734 µM

CS(=O)(=O)Nc1ccc(C(=O)O)cc1 [SX084]
inhibition at 10 µM (human 5-HT7b receptor; [1]): 9% | inhibition at 10 µM (human 5-HT7b receptor; [2]): 9% | inhibition at 10 µM (human 5-HT7b receptor; [3]): 9% | inhibition at 10 µM (human 5-HT7b receptor; [4]): 5.33% | inhibition at 10 µM (human 5-HT7b receptor; [5]): 13% | IC50 (recombinant SETD2; chemiluminescence-based enzymatic assay): 500 µM | SETD2 signal normalised to positive control and internally to compound (recombinant SETD2; fragment concentration 4.7 [log): 1.05 and 0.84 | SETD2 signal normalised to positive control and internally to compound (recombinant SETD2; fragment concentration 5 [log): 0.76 and 0.6 | SETD2 signal normalised to positive control and internally to compound (recombinant SETD2; fragment concentration 5.3 [log): 0.62 and 0.74 | SETD2 signal normalised to positive control and internally to compound (recombinant SETD2; fragment concentration 5.6 [log): 0.8 and 0.95 | SETD2 signal normalised to positive control and internally to compound (recombinant SETD2; fragment concentration 5.9 [log): 0.66 and 0.73 | inhibition at 10 µM (human 5-HT6 receptor; [6]): 38% | inhibition at 10 µM (human 5-HT6 receptor; [7]): 38% | inhibition at 10 µM (human 5-HT6 receptor; [8]): 38% | inhibition at 10 µM (human 5-HT6 receptor; [9]): 38% | inhibition at 10 µM (human 5-HT6 receptor; [10]): 38% | inhibition at 10 µM (human 5-HT1A receptor; [11]): 9% | inhibition at 10 µM (human 5-HT1A receptor; [12]): 9% | inhibition at 10 µM (human 5-HT1A receptor; [13]): 9% | inhibition at 10 µM (human 5-HT1A receptor; [14]): 9% | inhibition at 10 µM (human 5-HT1A receptor; [15]): 9%

O=C(O)C1CCCN(C(=O)N2CCCC2)C1 (stereo not shown) [SX-G6]
V0 / Vi (human thrombin): 1.18 | vinit (human thrombin): 27.345 and 28.364 | V0 / Vi (bovine factor Xa; [16]): 1.09 | vinit (bovine factor Xa; [16]): 16.1 and 15

O=C1CCN(c2ccncc2)CC1 [SX-G7]
V0 / Vi (human thrombin): 0.90 | vinit (human thrombin): 36.109 and 37.055 | V0 / Vi (bovine factor Xa; [16]): 1.03 | vinit (bovine factor Xa; [16]): 17.5 and 15.6

O=C1CCN(c2ccccn2)CC1 [SX-G8]
V0 / Vi (human thrombin): 0.99 | vinit (human thrombin): 33.236 | V0 / Vi (bovine factor Xa; [16]): 0.97 | vinit (bovine factor Xa; [16]): 18.3 and 16.6

Nc1ccc(-c2ccccc2)cc1C(=O)O [SX-G9]
V0 / Vi (human thrombin): 1.08 | vinit (human thrombin): 29.309 and 31.745 | V0 / Vi (bovine factor Xa; [16]): 1.04 | vinit (bovine factor Xa; [16]): 16.3

O=C(CN1CCCC1)c1ccccc1Cl [SX-G10]
V0 / Vi (human thrombin): 0.99 | vinit (human thrombin): 33.345 and 33.273 | V0 / Vi (bovine factor Xa; [16]): 1.00 | vinit (bovine factor Xa; [16]): 17.7 and 16.3

CCc1nccn1CC(=O)O [SX-G11]
V0 / Vi (human thrombin): 1.02 | vinit (human thrombin): 32.764 and 31.636 | V0 / Vi (bovine factor Xa; [16]): 1.08 | vinit (bovine factor Xa; [16]): 16.214 and 15.4

CS(=O)(=O)Nc1ccc(C(=O)O)cc1 [SX-G12]
V0 / Vi (human thrombin): 1.06 | vinit (human thrombin): 31.418 and 30.764 | V0 / Vi (bovine factor Xa; [16]): 1.01 | vinit (bovine factor Xa; [16]): 17.2 and 16.5

O=C(O)c1ccc(CN2CCOCC2)cc1 [SX-H1]
V0 / Vi (human thrombin): 1.07 | vinit (human thrombin): 31.127 and 30.255 | V0 / Vi (bovine factor Xa; [16]): 0.98 | vinit (bovine factor Xa; [16]): 17.6 and 17

O=C(O)CC1CCC(=O)N1 (stereo not shown) [SX-H2]
V0 / Vi (human thrombin): 1.12 | vinit (human thrombin): 30.691 and 28 | V0 / Vi (bovine factor Xa; [16]): 1.01 | vinit (bovine factor Xa; [16]): 17.5 and 16.3

FC1(F)CNCC(F)(F)O1 [SX-H3]
V0 / Vi (human thrombin): 0.99 | vinit (human thrombin): 34.218 and 32.291 | V0 / Vi (bovine factor Xa; [16]): 0.94 | vinit (bovine factor Xa; [16]): 18.2 and 17.8

Fc1ccc2c(C3CCNCC3)c[nH]c2c1 [SX-H4]
V0 / Vi (human thrombin): 0.95 | vinit (human thrombin): 34.909 and 34.764 | V0 / Vi (bovine factor Xa; [16]): 0.92 | vinit (bovine factor Xa; [16]): 18 and 18.9

Oc1ccc(-n2cncn2)cc1 [SX-H5]
V0 / Vi (human thrombin): 1.00 | vinit (human thrombin): 33.091 and 32.545 | V0 / Vi (bovine factor Xa; [16]): 1.05 | vinit (bovine factor Xa; [16]): 16 and 16.3

Cn1nc(C(F)(F)F)cc1O [SX-H6]
V0 / Vi (human thrombin): 1.11 | vinit (human thrombin): 29.345 and 30.109 | V0 / Vi (bovine factor Xa; [16]): 1.13 | vinit (bovine factor Xa; [16]): 14.3 and 15.9

O=C1CCC(=O)N(c2ccccc2)N1 [SX-H7]
V0 / Vi (human thrombin): 1.06 | vinit (human thrombin): 30 and 29.357 | V0 / Vi (bovine factor Xa; [16]): 0.97 | vinit (bovine factor Xa; [16]): 16.4

O=C1CC(CSc2ccc(Cl)cc2)=NN1 [SX-H8]
V0 / Vi (human thrombin): 0.97 | vinit (human thrombin): 33.5 and 31.286 | V0 / Vi (bovine factor Xa; [16]): 0.99 | vinit (bovine factor Xa; [16]): 15.686 and 16.6

O=C(c1ccccc1)N1CCC(CO)CC1 [SX-H9]
V0 / Vi (human thrombin): 1.03 | vinit (human thrombin): 31.714 and 29.571 | V0 / Vi (bovine factor Xa; [16]): 0.93 | vinit (bovine factor Xa; [16]): 17.7 and 16.5

O=C1CSC(Nc2ccc(F)cc2)=N1 [SX-H10]
V0 / Vi (human thrombin): 1.13 | vinit (human thrombin): 26.786 and 28.857 | V0 / Vi (bovine factor Xa; [16]): 1.14 | vinit (bovine factor Xa; [16]): 14.6 and 13.3

Cc1ccc(CCNc2ccccc2)cn1 [SX-H11]
V0 / Vi (human thrombin): 1.00 | vinit (human thrombin): 31.714 and 31.42 | V0 / Vi (bovine factor Xa; [16]): 0.99 | vinit (bovine factor Xa; [16]): 15.4 and 17

O=C1NC(=O)/C(=C\c2cccs2)N1 [SX-H12]
V0 / Vi (human thrombin): 1.13 | vinit (human thrombin): 29.929 and 26.071 | vinit, avrg. (bovine factor Xa; [17]): 13.665 | vinit (bovine factor Xa; [17]): 13.174 and 12.668 and 15.15 | V0 / Vi (bovine factor Xa; [18]): 1.24 | vinit, avrg. (bovine factor Xa; [18]): 27.296 | vinit (bovine factor Xa; [18]): 25.633 and 28.073 and 28.18 | V0 / Vi (bovine factor Xa; [16]): 1.27 | vinit (bovine factor Xa; [16]): 12.7 and 12.5 | Ki (bovine factor Xa; FactorXa, substrate 100 µM, cmpd conc 200 µM, one of two values averaged in Supplementary Data 1, read-out: Ki): 552 µM | Ki (bovine factor Xa; FactorXa, substrate 200 µM, cmpd conc 200 µM, one of two values averaged in Supplementary Data 1, read-out: Ki): 380 µM
